Source: US20080167297A1, “Pyrimidine Derivatives for Use as Anticancer Agents” (ASTRAZENECA AB, priority 2005, published 2008)

system: murine fibroblasts (NIH3T3) over-expressing human IGF-1 receptor; assay: Test (c): inhibition of IGF-stimulated cell proliferation (BrdU incorporation); type: cell-based; details: inhibition of IGF-stimulated proliferation in NIH3T3 over-expressing human IGF-1 receptor
Method: The construction of murine fibroblasts (NIH3T3) over-expressing human IGF-1 receptor has been described by Lammers et al (EMBO J, 8, 1369-1375, 1989). These cells show a proliferative response to IGF-I which can be measured by BrdU incorporation into newly synthesised DNA. Compound potency was determined as causing inhibition of the IGF-stimulated proliferation in the following assay:
Compounds are initially dissolved in DMSO to 10 mM, followed by dilutions in DMEM+1% FCS+glutamine to give a range from […] in 1-0.00045% DMSO final concentration in assay well.
Exponentially growing NIH3T3/IGFR cells were harvested and seeded in complete growth medium into a flat-bottomed 96 well tissue culture grade plate (Costar 3525) at 1.2×10^4 cells per well in a volume of 100 μl.
Growth medium was carefully removed from each well using a multi-channel pipette. Wells were carefully rinsed three times with 200 μl with HBSS. 100 μl of starvation medium was added to each well and the plate was re-incubated for 24 hours.
50 μl of a 4× concentrate of test compound was added to appropriate wells. Cells were incubated for 30 minutes with compound alone before the addition of IGF. For cells treated with IGF, an appropriate volume (i.e. 25 μl) of starvation medium was added to make a final volume per well up to 200 μl followed by 25 μl of IGF-1 at 160 ng/ml (to give a final concentration of 20 ng/ml). […] The plate was re-incubated for 20 hours.
The incorporation of BrdU in the cells (after a 4 h incorporation period) was assessed using the BrdU Cell Proliferation Elisa according to the manufacturer's protocol.

Q: Which IC50 does the source give for `CCOc1nccnc1-c1cc([C@@H]2CCCN2c2nc(C)cc(Nc3cc(C)[nH]n3)n2)on1` [Example 1, S-2-[2-{3-(3-Ethoxypyrazin-2-yl)isoxazol-5-yl}pyrrolidin-1-yl]-6-methyl-4-(5-methyl-1H-pyrazol-3-ylamino)pyrimidine] here?
A: Its IC50 is 0.04 µM.

Q: `Cc1cc(Nc2cc(C)[nH]n2)nc(N2CCC[C@H]2c2cc(-c3cccnc3C)no2)n1` [Example 3, S-2-[2-{3-(2-Methylpyrid-3-yl)isoxazol-5-yl}pyrrolidin-1-yl]-6-methyl-4-(5-methyl-1H-pyrazol-3-ylamino)pyrimidine] was tested. Which IC50 did it give?
A: Its IC50 is 0.006 µM.

Q: For `Cc1cc(Nc2cc(C)[nH]n2)nc(N2CCC[C@H]2c2cc(-c3cccnc3C#N)no2)n1` [Example 7, S-2-[2-{3-(2-Cyanopyrid-3-yl)isoxazol-5-yl}pyrrolidin-1-yl]-6-methyl-4-(5-methyl-1H-pyrazol-3-ylamino)pyrimidine], which IC50 is on record?
A: The IC50 was 0.004 µM.
